This series in a line: gradient 5% acetonitrile 3 min, to 50% in 2 min, to 85% in 15 min, held 3 min, 100 µL/min. The conditions noted are these: column: Zorbax Extend-C18 2.1 x 50 mm; eluents: water / acetonitrile, 0.1% formic acid. A digest of the protocol: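 Over 3 months, pure standards in mixtures of ~100 molecules were run by HPLC coupled to a quadrupole time-of-flight mass spectrometer in positive and negative ionization mode. The column was a Zorbax Extend-C18 (2.1 × 50 mm, 1.8 μm) at 100 μL/min, eluted with water and acetonitrile each holding 0.1% formic acid, with 40 μL dead and 900 μL dwell volumes. Retention time was determined from adduct peaks chosen by software and checked manually.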
In turn, `CCn1c(C)c(C(=O)C(C)N(CCC(C)C)C(=O)c2ccccc2Cl)c(C)c1C(=O)OC` (centres undefined) yielded an RP-LC retention time of 1210 s. In the case of `CC(C)CNC(=O)c1nn(-c2ccc(F)cc2)nc1CO` it was 888 s; in that of `COc1cccc(NC(=O)Cn2ccnc2-c2ccnc(N3CCCC3)c2)c1`, 602 s; in that of `Cc1ccc(NC(=O)N2CCc3c(c(-c4nnc(-c5ccc(F)cc5)o4)nn3C)C2)cc1C`, 943 s.

`CC(C)n1nc(CNC(=O)CNC(=O)c2ccccc2)c2ccccc21` showed an RP-LC retention time of 740 s. In turn, `Cc1occc1C(=O)N1CC(c2nc(CCN(C)C(=O)C3CC3)no2)C1` returned an RP-LC retention time of 661 s.

For the compound `CCn1cc(S(=O)(=O)N2CCCCC2CCn2cc(-c3ccccc3)nn2)cn1` (centres undefined), the RP-LC retention time worked out at 804 s.

For the compound `Cn1ccc(CN2CCC(Cc3ccccc3)CC2)cc1=O`, the RP-LC retention time came to 611 s. For the compound `COC(=O)c1ccc(CSc2nnc(CNC(=O)c3cccc([N+](=O)[O-])c3C)o2)o1`, the RP-LC retention time worked out at 732 s.

`Cc1cc(C(=O)Nc2c(F)c(F)c(F)c(F)c2F)n(-c2ccccc2)n1`: the RP-LC retention time stood at 917 s. In the case of `CCCn1c(C)cnc1C1CN(S(=O)(=O)c2ccc(Cl)c(Cl)c2)C1` it was 724 s. In the case of `Clc1ccccc1N1CCN(c2nccn3nc(-c4ccccc4)cc23)CC1` it was 1330 s. Consider `O=C(CN1CCN(c2ccccn2)CC1)Nc1ccc(F)c(F)c1`, for which the RP-LC retention time was found to be 576 s. The compound `CCOc1ccccc1-c1noc(CN2N=NC3C(=O)N(c4cc(OC)cc(OC)c4)C(=O)C32)n1` (centres undefined) showed an RP-LC retention time of 962 s. In the case of `CCOC(=O)C1CCCN(C(=O)c2ccc(-c3csc(CC)n3)cc2)C1` (centres undefined), the RP-LC retention time turned out to be 925 s.

`COc1ccc(-c2cc3nn(CC(=O)N4CCc5ccccc54)c(=O)n3c(C)n2)cc1` displayed an RP-LC retention time of 856 s. Then `O=C(Nc1ccccc1)N1C[C@H]2C[C@H](C1)[C@H]1CCCC(=O)N1C2`, with 622 s; and `c1cncc(CN2CCC(n3ncc4c(N5CCOCC5)nc(-c5ccc6[nH]ccc6c5)nc43)CC2)c1`, with 675 s; and `COCc1cc2nn(CC(=O)Nc3c(C)cccc3C)c(=O)n2c(-c2ccccc2)n1`, with 930 s. `COc1ccc(CC(=O)N2CCN(c3cc(C)n4cnnc4n3)CC2)cc1OC` yielded an RP-LC retention time of 578 s. In the case of `CCCC(=O)Nc1ccc(-c2nc(-c3ccc(Cl)cc3)no2)cc1` it was 1240 s. In the case of `CCc1ccccc1NS(=O)(=O)c1c(C)sc(C)c1-c1cc(C(F)(F)F)on1` it was 1240 s. On to `COc1ccc2c(c1)C1(CCN(C(=O)Nc3cccc(C)c3)C1)C(=O)N2` (centres undefined), for which the RP-LC retention time worked out at 730 s. In the case of `CCc1nc2c(=O)n(CC(=O)N3CCN(c4ccccc4)CC3)nc(C)c2s1` it was 765 s; in that of `Cc1ccc(CNC(=O)c2cc3c(n(-c4ccc(C(F)(F)F)cc4)c2=O)CCCC3=O)o1`, 634 s; in that of `CCOC(=O)CC(=O)Nc1ccc(-c2nc(-c3cc(C)ccc3C)co2)cc1`, 1110 s. Compound `COC(=O)C1=CN(c2ccc(F)cc2C)c2ccc(F)cc2S1(=O)=O` had an RP-LC retention time of 920 s.

In the case of `CC1=NS(=O)(=O)N(C)C=C1C(=O)OCc1nc(Cc2cccc(C)c2)no1`, the RP-LC retention time is 957 s. In the case of `CC1(C(=O)NC2CCCC2)Cn2cnc(C(=O)NCc3ccccc3F)c2C(=O)N1C1CC1` (centres undefined), the RP-LC retention time amounted to 778 s. In the case of `Cc1cc(OCC(=O)Nc2ccccc2)nc(N2CCN(c3ccccc3)CC2)n1` it was 804 s. Then `COc1ccc(CN2CN=C(Nc3nc(C)c4cccc(OC)c4n3)NC2)cc1`, with 750 s. Then `COCCNC(=O)C1CCN(S(=O)(=O)c2cc(-c3noc(C)n3)cs2)CC1`, with 679 s; and `COc1ccc(CNC(=O)C2CCCN(C(=O)c3[nH]c(C)c(C(=O)OC(C)C)c3C)C2)cc1` (centres undefined), with 812 s. `CCn1c(=O)c(N2CCC(NC(=O)NCc3ccccc3)CC2)nc2cccnc21`: the RP-LC retention time was 826 s.

`CSc1sc(C)cc1-c1nsc(=O)o1` returned an RP-LC retention time of 1110 s. `CSc1ccc(CNC(=O)C2CCN(c3nnc(-c4ccc(C)cc4)o3)CC2)cc1` displayed an RP-LC retention time of 931 s. Then `O=C(CCc1nnc2ccc(NCc3ccco3)nn12)N1CCN(c2ccccn2)CC1`, with 569 s. Then `O=C(CN1CC=C(c2cnn(-c3ccc(F)cc3)c2)CC1)N1CCN(c2ccccn2)CC1`, with 566 s; and `O=c1c2cc(Cl)ccc2oc2cc(O)cc(O)c12`, with 1000 s. In the case of `O=C1CCCc2cc(S(=O)(=O)Nc3ccc(CN4CCCCC4)cc3)ccc2N1` it was 597 s; in that of `Cc1cnc(C2CCOCC2)n1C1CCN(C(=O)NC2CCCCC2)CC1`, 611 s. For the compound `c1ccc(-c2nc3cc(-c4noc(-c5ccco5)n4)ccc3o2)cc1`, the RP-LC retention time came to 1240 s.

The compound `O=C(CCN(CC1CCCO1)C(=O)c1cccc(Br)c1)N1CCNCC1` (centres undefined) had an RP-LC retention time of 610 s. The compound `CC(=O)Nc1nc2ccc(CC(=O)Nc3ccc(F)cc3)cc2s1` displayed an RP-LC retention time of 714 s.

Regarding `CCN(CC)CCNc1ccc(-c2nc(-c3ccc(F)cc3)no2)nn1`, the RP-LC retention time was 667 s. Then `CCCCN(CCNc1ncnc2onc(-c3ccccc3OC)c12)Cc1ccco1`, with 726 s; and `COC(=O)Cn1c(=O)c2c(nc3n2CCCN3c2ccccc2)n(C)c1=O`, with 761 s; and `COc1cc(N2C(=O)CC(N3CCC(C(N)=O)CC3)C2=O)cc(OC)c1OC` (centres undefined), with 563 s. In the case of `CCCn1nnc2cc(-c3noc(CNC(=O)c4ccccc4)n3)ccc21` it was 624 s. Compound `Cc1sc(C)c(S(=O)(=O)NCc2ccc3c(c2)OCO3)c1-c1cc(C(F)(F)F)on1` displayed an RP-LC retention time of 1120 s. `CC(C)(C)c1onc(OCP(=O)(O)O)c1CC(N)C(=O)O` (centres undefined) had an RP-LC retention time of 594 s. Then `O=C(NC1CC1)c1cc(=O)[nH]c2ccccc12`, with 587 s; and `O=c1[nH]cc(S(=O)(=O)N2CCCCC2)c(=O)[nH]1`, with 604 s. Then `O=C(CN1CCN(Cc2ccccc2)C1=O)N1CCN(c2ccc(F)cc2)CC1`, with 813 s; and `CCc1nc2nccc(-c3ccc(OC)cc3)n2n1`, with 784 s.

As to `Cc1noc(C)c1S(=O)(=O)N1[C@H]2CC[C@@H]1c1cnc(-c3ccccc3)nc1C2`, the RP-LC retention time was 1050 s.

In turn, `O=C(NCc1ccccc1)C1CC(=O)N(c2ccc3c(c2)CCN3C(=O)C2CCC2)C1` (centres undefined) had an RP-LC retention time of 769 s. As for `COc1ccc(CC(=O)NC(C)C(=O)Nc2nc3ccccc3[nH]2)cc1Cl` (centres undefined), the RP-LC retention time was determined as 671 s.

For the compound `Cc1ccc2c(c1)N(S(C)(=O)=O)CCC(C(=O)Nc1ccccc1Cl)O2` (centres undefined), the RP-LC retention time was 1030 s. In the case of `CCOC(=O)CNC(=O)N(C)Cc1nc2cc(C(=O)N(C)C)ccc2n1C` it was 566 s; in that of `CCOC(=O)C1CCCN(C(=O)C2c3cc(OC)c(OC)cc3C(=O)N(C)C2c2cccs2)C1` (centres undefined), 787 s; in that of `COc1ccc(-n2nc(C)c3sc(N(C)CC(=O)N4CCN(c5ccccn5)CC4)nc32)cc1`, 669 s. Then `COc1ccc(CCNC(=O)NCC2CCN(Cc3ccsc3)CC2)cc1`, with 565 s.

As for `CN(CC1CCOC1)C(=O)Nc1ccc(F)cc1` (centres undefined), the RP-LC retention time came out at 671 s. Then `CCn1ccc(C(=O)NC2CCCC2)n1`, with 709 s. Then `CC(C)CN1CCn2cc(S(=O)(=O)NCc3cccc(F)c3)cc2C1=O`, with 813 s; and `CC(=O)c1cccc(NC(=O)c2sc3ccccc3c2Cl)c1`, with 988 s. Compound `O=C1NC2(CCN(C(=O)Nc3ccc(F)cc3)CC2)N=C1c1cccc(Cl)c1` yielded an RP-LC retention time of 872 s. Then `CC(C)C(=O)Nc1nc(-c2ccc3c(c2)N(C)C(=O)C(C)O3)cs1` (centres undefined), with 822 s. `COC(=O)c1cc(Nc2ccc(OC)cc2OC)c2ccccc2n1`: the RP-LC retention time turned out to be 581 s. Turning to `COc1ccc(CCn2ccc3nc(N4CCN(C)CC4)ncc3c2=O)cc1OC`, the RP-LC retention time amounted to 605 s. For the compound `CCc1noc(-c2cnc3nc(C)ccc3c2NCc2ccc(OC)cc2OC)n1`, the RP-LC retention time is 752 s. In the case of `Cc1ccccc1CNC(=O)C1CCN(S(=O)(=O)c2cc(C(=O)N3CCCC3)n(C)c2)CC1` it was 738 s; in that of `COc1ccc(-c2noc(C3CCCN3C(=O)c3cc(OC)c(OC)c(OC)c3)n2)cc1OC` (centres undefined), 828 s; in that of `O=C(Nc1ccc2nc(N3CCCN(c4ncccn4)CC3)cc(C(=O)O)c2c1)c1ccc(F)cc1`, 616 s. In the case of `CN1CCn2ccnc2C12CCN(C(=O)Nc1ccc(Cl)cc1C(F)(F)F)CC2` it was 650 s. On to `COc1cccc(C2Cn3nnc(-c4nc(-c5ccccc5)no4)c3CO2)c1` (centres undefined), for which the RP-LC retention time is 1130 s. As for `O=S(=O)(c1cccc(-c2nnc(-c3ccc(F)cc3)o2)c1)N1CCCCC1`, the RP-LC retention time is 1080 s. As for `CCc1ccc(NC(=O)Cn2c(=O)n(-c3ccc(F)cc3)c(=O)c3c2cc(C)n3C)cc1`, the RP-LC retention time was 888 s.

The values are drawn from the METLIN SMRT retention time set (Domingo-Almenara et al. 2019).
